Laboratory results: patent US20070005124A1, “Endoluminal prosthesis comprising a therapeutic agent” (Blue Medical Devices B.V., priority 2003, published 2007)
“Also recorded” adds a separate entry of the source.

Key:
[1] = test system: porcine coronary model; test: Directly (ethanol dip) coated stents in a porcine coronary model; type: in vivo; conditions: direct coating
Excerpt: To get rid of the polymer, which remains always a concern when coating a drug on an endoluminal prosthesis, since several polymers have shown to be non biocompatible and to induce an inflammatory response leading to SMC proliferation and restenosis, the present inventor tried to coat melatonin directly to the surface of the endoluminal prosthesis. As endoluminal prosthesis use was made of a commercially available 316L stainless steel coronary stent (V-Flex Plus, 16 mm/3.0 mm, William Cook Europe) and the stent was dipped in a 20 mg/ml ethanol solution for 30 seconds. After removal the stent was air-dried using a warm laminar flow to evaporate the ethanol. Using this method a total melatonin load on the stent of 20 μg could be achieved. […] This could be explained by the 1) the potent free radical scavenging effect of melatonin, 2) the potent anti-inflammatory effect of melatonin, 3) maybe a direct effect on SMC proliferation, 4) the non toxic effect of melatonin on other mediators of the healing response.
In a next step the total load of melatonin was increased by using more concentrated melatonin/ethanol solutions. By doing so a maximum total load of 300 μg/ stent could be achieved.

[2] = test system: porcine coronary model; test: Oil/solvent emulsion coated stents (500 μg) in a porcine coronary model, up to 3 months; type: in vivo; conditions: oil/solvent emulsion coating, 500 μg melatonin per stent
Method: (§1) In order to maintain significant melatonin concentrations for a longer period of time to obtain a durable anti-restenosis effect the present inventor has developed new methods to achieve a slower melatonin release. The drug was dissolved in a biocompatible emulsion of oil and a solvent wherein the drug is highly soluble. The stent was dipped in this emulsion several times and in between the different dipping steps air-dried using a warm laminar flow to evaporate the solvent and harden the drug/oil coating.
Using the same coating method, no effect of probucol was found.

[3] = test system: in-stent neointimal hyperplasia; test: Further studies with different total loading doses per stent, in-stent neointimal hyperplasia; type: in vivo
[4] = test system: coronary arteries of pigs; test: Probucol and Melatonin biological-oil coated stents implanted in porcine coronary arteries, histopathology and morphometry at 4 weeks; type: in vivo, Domestic crossbred pigs; conditions: oil-coated loaded stents; for AS: Area stenosis (= 100 * (1 − LA/IEL)) / Inflammation (peri-strut inflammation score 1-3, mean) / Injury (arterial injury score, Schwartz grade 0-3, mean) / NIH: Neointimal hyperplasia (= IEL − LA) / LA: Lumen area: 4 weeks follow-up; for LA: Lumen area: Probucol 447+/−56 μg, Melatonin 367+/−47 μg per stent; for effect on arterial injury and inflammatory response (in words): compared to bare and/or oil-only stents
Method: Domestic crossbred pigs of both sexes weighing 20-25 kg were used. They were fed with a standard natural grain diet without lipid or cholesterol supplementation throughout the study. All animals were treated and cared for in accordance with the Belgium National Institute of Health Guidelines for care and use of laboratory animals.
In this study, bare Jostent Flexmaster stents (n=8), Bare stents dipped in a Biological oil coating (Oil Only; n=7), Bare stents dipped in a Probucol/Biological oil coating solution resulting in a total Probucol load of 447+/−56 μg/per stent (Pro, n=7) and Bare stents dipped in a Melatinin/Biological oil coating solution resulting in a total Melatonin load of 367+/−47 μg/stent (Mela, n=8). Stents were implanted in the coronary arteries of 15 pigs. All pigs were followed for 4 weeks to evaluate the peri-strut inflammatory response and neointimal formation.
Surgical procedure and stent implantation in the coronary arteries were performed according to the method described by De Scheerder et al. in “Local angiopeptin delivery using coated stents reduces neointimal proliferation in overstretched porcine coronary arteries.” J. Inves. Cardiol. 8:215-222; 1996, and in “Experimental study of thrombogenicity and foreign body reaction induced by heparin-coated coronary stents.” Circulation 95:1549-1553; 1997. The guiding catheter was used as a reference to obtain an oversizing from 10 to 20%.
Coronary segments were carefully dissected together with a 1 cm minimum vessel segment both proximal and distal to the stent. The segments were fixed in a 10% formalin solution. The middle part of each stent was harvested for histopathologic analysis. Tissue specimens were embedded in a cold-polymerizing resin (Technovit 7100, Heraus Kulzer GmbH, and Wehrheim, Germany). Sections, 5 microns thick, were cut with a rotary heavy duty microtome HM 360 (Microm, Walldorf, Germany) equipped with a hard metal knife and stained with hematoxylin-eosin, elastic stain and phosphotungstic acid hematoxylin stain. Light microscopic examination was performed by an experienced pathologist who was blinded to the type of stent used. Injury of the arterial wall due to stent deployment (and eventually inflammation induced by the polymer) was evaluated for each stent filament and graded as described by Schwartz et al. • Grade 0=internal elastic membrane intact, media compressed but not lacerated; • Grade 1=internal elastic membrane lacerated; • Grade 2=media visibly lacerated; external elastic membrane compressed but intact; • Grade 3=large laceration of the media extending through the external elastic membrane or stent filament residing in the adventitia.
Inflammatory reaction at each stent filament was carefully examined, searching for inflammatory cells, and scored as followed: • 1=sparsely located histolymphocytes surrounding the stent filament; • 2=more densely located histolymphocytes covering the stent filament, but no lymphogranuloma and/or giant cells formation found; • 3=diffusely located histolymphocytes, lymphogranuloma and/or giant cells, also invading the media. • Mean score=sum of score for each filament/number of filament present.

[5] = In-vitro release of drug from coated stent; type: physicochemical
Method: (§2) A disavantage of the direct coating system is the fast release of the drug from the stent.
as §1

[6] = In-vivo melatonin coronary vascular concentration after direct-coated stent; conditions: direct coating
Excerpt: as §2

Row | SMILES | biocompatibility / inflammation surrounding the struts on histological examination ([1]; 20 μg per stent, follow-up after 5 days) | effect on inflammatory response and neointimal hyperplasia ([1]; high dose, maximum total load 300 μg/stent) | decrease in neointimal hyperplasia compared to a bare stent ([1]; total load 20 μg per stent, after 4 weeks) [%] | effect on peri-strut inflammation and neointimal hyperplasia [2] | effect on neointimal hyperplasia ([3]; dose depending response, already observed for a dose of 0.5 μg/mm^2 stent area) | effect on neointimal hyperplasia compared to bare and oil-only stents (in words) ([4]; 4 weeks) | lumen area compared with the other groups (in words) ([4]; 4 weeks) | AS: Area stenosis (= 100 * (1 − LA/IEL)) [4] [%] | Inflammation (peri-strut inflammation score 1-3, mean) [4] | Injury (arterial injury score, Schwartz grade 0-3, mean) [4] | NIH: Neointimal hyperplasia (= IEL − LA) [4] [mm2] | LA: Lumen area [4] [mm2] | effect on arterial injury and inflammatory response (in words) ([4]; 4 weeks) | In-vitro release ([5]; direct coating, within 24 hours) [%] | melatonin release period ([5]; oil/solvent emulsion coating, total load 500 μg per stent) | duration of sufficient melatonin coronary vascular concentration [6] | effect on inflammatory response and neointimal hyperplasia ([1]; similar experiments as 20 μg melatonin stents) | effect on in-stent neointimal hyperplasia ([3]; Probucol total loading doses 10-2000 μg per stent) | Inflammation (peri-strut inflammation score 1-3, mean) ([4]; listed as Probutol)
1 | COc1ccc2[nH]cc(CCNC(C)=O)c2c1 [Melatonin, N-acetyl-5-methoxytryptamine] | without inducing any inflammation | efficient blocking of inflammatory response and neointimal hyperplasia | 26 | Sustained inhibition of peri-strut inflammation and neointimal hyperplasia | significant inhibition | significant decrease | larger than the other groups | 16±7 | 1.00±0.00 | 0.08 ± 0.09 | 0.89±0.28 | 5.10 ± 1.40 | the injury score was dramatically decreased; also recorded: minimal inflammatory response | 90 | weeks instead of days | up to 15 days | – | – | –
2 | CC(C)(Sc1cc(C(C)(C)C)c(O)c(C(C)(C)C)c1)Sc1cc(C(C)(C)C)c(O)c(C(C)(C)C)c1 [Probucol] | – | – | – | no effect | – | no significant effect | – | 24 ± 14 | 1.03 ± 0.08 | 0.28 ± 0.20 | 1.43 ± 0.77 | 4.46 ± 1.06 | could decrease arterial injury and inflammatory response | – | – | – | did not result in a significant effect | no significant effect | 1.03±0.08
